Tests used:
Assay type in all cases: in vivo, human
[1] = tested on: degenerative osteoarthritis of the knee; assay: Degenerative osteoarthritis of the knee and pulled ligament, lotion; details: 600 mg
Method: A dentist was diagnosed with degenerative osteoarthritis of the left knee in 2001, by an orthopedic surgeon at the Henry Ford Health System in Farmington Hillsi Mich. At that time, they were […], and was working 55 hours per week at their dental practice. The orthopedic surgeon advised a complete knee replacement since the joint space was minimal as per the M.Rt. The meniscus had worn away from athletics and job requirements. The option was chosen of using occasional steroid injections in times of severe inflammation along with the daily use of Celebrex until they could no longer function, rather than have such an irreversible traumatic operation, at their age. The doctor agreed. Their quality of life was affected as was their comfort during work.
A few years later, the right knee ligaments were starting to weaken resulting in much pain and dysfunction, the now patient's gait was hobbled to a severe limp.
A composition of the subject invention in lotion form was applied twice daily after warming the area with a moist-heat heating pad for a few minutes.
Plans for a knee replacement were put on hold. The patient subsequently suffered a ligament pulled ligament in the groin. The ligament was also treated with the same composition In three days the pain was gone.

gout = assay: Gout; details: locally added to the transdermal cream
Text: This acute musculoskeletal strain and severe foot pain occurred when getting out of bed, and standing with bare feet. The strain was associated with extensive standing and walking without their customary shoe arch support. […] The use of Advil liquid filled capsules solubilized ibuprofen locally added to the transdermal cream expedited the reversal of acute gout after one-two applications.
When used transdermally on all these examples, the permeability was increased with the subsequent use of the heating pad, but in the case of the Gout, it was used at its mildest level. […] In the treatment of Gout, the patient responded first to the Resveratrol enriched transdermal cream as in Example Group 2 locally applied used 3 times daily, with Garlic powder by Oregon Wild Harvest, specially processed, air-dried, and ground with a water-cooled grinding system to avoid generating heat, was sprinkled onto the wound as an anti-fungal agent derived from the cloves and root system of the Garlic plant and serving as a GRAS item to impart the innate immunity found in the defensin adaptogen of the plant, with good success.

atrial fibrillation = assay: Atrial fibrillation patient treated with Cardizem and subject composition
Text: We see the same effect in the remarkable drug, Levodopa, in the treatment of Parkinsonism with the side effects of stroke, heart attack, and substantia nigra, basal ganglia damage. […] The total studies were almost 30,000 in number and BIOMARKERS TISSUE […] AND […] TARGETS FOR CARDIAC […] Cardiac arrhythmia nutritional deficiencies, 496 studies compared with:
Vitamin B1 was cited as the most critical of preventing and reversing arrhythmia in starvation studies. Omega-3 fish oil was shown pre-clinically to be effective in the animal heart studies: after it was digested from and enzymatic release from glycerol was not only shown by Leaf in vitro in the isolated beating animal heart muscle to prevent toxicity effects of toxic chemicals. On our chemical moiety orientated spreadsheet where we listed more than 1,400 studies documenting the efficacy of magnesium.
With complete components listed in the spreadsheet of indicated diseases, giving a more complete list, provides by maximizing and optimizing efficacy and safety in the foregoing subject composition free of undesirable effects not only for the treatment of disease but for averting these undesirable side-effects. […]

CC(C)Cc1ccc(C(C)C(=O)O)cc1 (stereo not drawn) [Ibuprofen]
effect on knee pain and dysfunction [1]: helpful but not therapeutic

CC(C)Cc1ccc(C(C)C(=O)O)cc1 (stereo not drawn) [Advil, ibuprofen]
applications until reversal of acute gout (gout): one-two

COc1ccc([C@@H]2Sc3ccccc3N(CCN(C)C)C(=O)[C@@H]2OC(C)=O)cc1 [Cardizem]
side effects on the second dose (atrial fibrillation): pain, inability to walk, and weakness

Reference: patent publication US20110213236A1, “THERAPEUTIC COMPOSITIONS, DEVICES AND METHODS FOR OBSERVING TREATED TISSUES” (IMMUNOPATH PROFILE, INC., priority 2008, published 2011)
